Results published in ChEMBL document CHEMBL6121037, “Screening, Discovery, and Optimization of the Natural Antitubercular Chlorflavonin from a Marine-Derived Fungal Library” (J Nat Prod, 2025).
Where a name gives a salt, the structure may show the parent alone. Calls of active or inactive are those of the source. The rule behind the calls is not given here.

Assays:
Mycobacterium marinum = experiment: Antibacterial activity against Mycobacterium marinum assessed as reduction in microbial growth at 100 ug/ml; assay type: functional, organism-based; conditions: dose 100.0 µg/ml
Staphylococcus aureus = experiment: Antibacterial activity against Staphylococcus aureus assessed as reduction in microbial growth at 25 ug/ml incubated for 24 hrs; assay type: functional, organism-based; conditions: dose 25.0 µg/ml
A549 [1] = experiment: Cytotoxicity against human A549 cells at 20 uM by MTT assay; assay type: functional, cell-based
[2] = system: Mycobacterium tuberculosis; experiment: Antitubercular activity against Mycobacterium tuberculosis H37Ra assessed as reduction in microbial growth; assay type: functional
A549 [3] = experiment: Cytotoxicity against human A549 cells by MTT assay; assay type: functional, cell-based

| Compound | Activity (Mycobacterium marinum) | Activity (Staphylococcus aureus) | Activity (A549 [1]) | MIC90 [2] [µM] | IC50 (A549 [3]) [nM] |
| --- | --- | --- | --- | --- | --- |
| COc1cc(O)c2c(=O)c(OC)c(-c3cccc(Cl)c3OC(=O)/C=C/c3ccc(F)c(F)c3)oc2c1OC | inactive | inactive | inactive |  |  |
| COc1cc(O)c2c(=O)c(OC)c(-c3cccc(Cl)c3OC(=O)/C=C/c3ccc(C(F)(F)F)cc3)oc2c1OC | inactive | inactive | inactive | 1.7 |  |
| COc1cc(OC(=O)c2cccc(F)c2)c2c(=O)c(OC)c(-c3cccc(Cl)c3OC(=O)c3cccc(F)c3)oc2c1OC | inactive | inactive | inactive | 1.6 |  |
| COc1cc(O)c2c(=O)c(OC)c(-c3cccc(Cl)c3OC(=O)/C=C/c3ccsc3)oc2c1OC | inactive | inactive | inactive | 1.9 |  |
| COc1cc(O)c2c(=O)c(OC)c(-c3cccc(Cl)c3OCCc3cccc(F)c3)oc2c1OC | inactive | inactive | inactive |  |  |
| NNC(=O)c1ccncc1 [ISONIAZID] | inactive | inactive |  | 0.3 |  |
| COc1cc(OCc2cccc(C)c2)c2c(=O)c(OC)c(-c3cccc(Cl)c3OCc3cccc(C)c3)oc2c1OC | inactive | inactive | inactive |  |  |
| COc1cc(O)c2c(=O)c(OC)c(-c3cccc(Br)c3O)oc2c1OC |  |  |  | 1.2 |  |
| COc1cc(O)c2c(=O)c(OC)c(-c3cccc(Cl)c3OC(=O)c3cccnc3)oc2c1OC | inactive | inactive | inactive | 2.1 |  |
| COc1cc(O)c2c(=O)c(OC)c(-c3cccc(Cl)c3OC(=O)/C=C/c3ccc(C)cc3)oc2c1OC | inactive | inactive | inactive | 1.9 |  |
| COc1cc(O)c2c(=O)c(OC)c(-c3cccc(Cl)c3OC(=O)/C=C/c3cccnc3)oc2c1OC | inactive | inactive | inactive | 2 |  |
| COc1cc(O)c2c(=O)c(OC)c(-c3cccc(Cl)c3OC(=O)/C=C/c3cccc(Cl)c3)oc2c1OC | inactive | inactive | inactive | 0.9 |  |
| COc1cc(O)c2c(=O)c(OC)c(-c3cccc(Cl)c3OC(=O)c3cccc(C)c3)oc2c1OC | inactive | inactive | inactive |  |  |
| COc1cccc2c1C(=O)c1c(O)c3c(c(O)c1C2=O)C[C@@](O)(C(=O)CO)C[C@@H]3O[C@H]1C[C@H](N)[C@H](O)[C@H](C)O1 [DOXORUBICIN HYDROCHLORIDE] |  |  |  |  | 250 |
| COc1cc(O)c2c(=O)c(OC)c(-c3ccccc3O)oc2c1OC | inactive | inactive | inactive |  |  |
| COc1cc(OCc2ccc(C(C)(C)C)cc2)c2c(=O)c(OC)c(-c3cccc(Cl)c3OCc3ccc(C(C)(C)C)cc3)oc2c1OC | inactive | inactive | inactive |  |  |
| COc1cc(O)c2c(=O)c(OC)c(-c3cccc(Cl)c3OC(=O)/C=C/c3ccccc3Cl)oc2c1OC | inactive | inactive | inactive | 0.7 |  |
| COc1cc(/C=C/C(=O)Oc2c(Cl)cccc2-c2oc3c(OC)c(OC)cc(O)c3c(=O)c2OC)cc(OC)c1OC | inactive | inactive | inactive | 1.7 |  |
| COc1cc(O)c2c(=O)c(OC)c(-c3cccc(Cl)c3OC(=O)c3cccc(Br)c3)oc2c1OC | inactive | inactive | inactive | 1.8 |  |
| COc1cc(C(=O)Oc2c(Cl)cccc2-c2oc3c(OC)c(OC)cc(OC(=O)c4cc(OC)c(OC)c(OC)c4)c3c(=O)c2OC)cc(OC)c1OC | inactive | inactive | inactive |  |  |
| COc1cc(OC(=O)c2ccccc2)c2c(=O)c(OC)c(-c3cccc(Cl)c3OC(=O)c3ccccc3)oc2c1OC | inactive | inactive | inactive | 1.7 |  |
| COc1cc(OCc2ccc(C(F)(F)F)cc2)c2c(=O)c(OC)c(-c3cccc(Cl)c3OCc3ccc(C(F)(F)F)cc3)oc2c1OC | inactive | inactive | inactive |  |  |

| Compound | Activity (Mycobacterium marinum) | Activity (Staphylococcus aureus) | Activity (A549 [1]) | MIC90 [2] [µM] | IC50 (A549 [3]) [nM] |
| --- | --- | --- | --- | --- | --- |
| COc1cc(OCc2cccc(F)c2)c2c(=O)c(OC)c(-c3cccc(Cl)c3OCc3cccc(F)c3)oc2c1OC | inactive | inactive | inactive |  |  |
| COc1cc(O)c2c(=O)c(OC)c(-c3cccc(Cl)c3OCc3cccc(C)c3)oc2c1OC | inactive | inactive | inactive |  |  |
| COc1cc(OC(=O)c2cccc(Cl)c2)c2c(=O)c(OC)c(-c3cccc(Cl)c3OC(=O)c3cccc(Cl)c3)oc2c1OC | inactive | inactive | inactive |  |  |
| COc1cc(O)c2c(=O)c(OC)c(-c3cccc(Cl)c3OCc3ccc(C(C)(C)C)cc3)oc2c1OC | inactive | inactive | inactive |  |  |
| COc1ccc(C(=O)Oc2c(Cl)cccc2-c2oc3c(OC)c(OC)cc(OC(=O)c4ccc(OC)cc4)c3c(=O)c2OC)cc1 | inactive | inactive | inactive |  |  |
| COc1c(Br)c(O)c2c(=O)c(OC)c(-c3cc(Br)cc(Cl)c3O)oc2c1OC | inactive | inactive | inactive |  |  |
| COc1ccc(/C=C/C(=O)Oc2c(Cl)cccc2-c2oc3c(OC)c(OC)cc(O)c3c(=O)c2OC)cc1 | inactive | inactive | inactive | 1.9 |  |
| COc1cc(OC(=O)c2cccc(N(C)C)c2)c2c(=O)c(OC)c(-c3cccc(Cl)c3OC(=O)c3cccc(N(C)C)c3)oc2c1OC | inactive | inactive | inactive |  |  |
| COc1cc(O)c2c(=O)c(OC)c(-c3cccc(Cl)c3OC(=O)c3cccc(Cl)c3)oc2c1OC | inactive | inactive | inactive | 1.9 |  |
| COc1cc(O)c2c(=O)c(OC)c(-c3cccc(Cl)c3OC(=O)N(C)C)oc2c1OC | inactive | inactive | inactive |  |  |
| COc1cc(O)c2c(=O)c(OC)c(-c3cccc(Cl)c3O)oc2c1OC | inactive | inactive | inactive | 2.6 |  |
| COc1cc(O)c2c(=O)c(OC)c(-c3cccc(Cl)c3OC(=O)c3cccc(N)c3)oc2c1OC | inactive | inactive | inactive | 2 |  |
| COc1cc(O)c2c(=O)c(OC)c(-c3cccc(Cl)c3OC(=O)/C=C/c3ccc(N(C)C)cc3)oc2c1OC | inactive | inactive | inactive |  |  |
| COc1ccc(C(=O)Oc2c(Cl)cccc2-c2oc3c(OC)c(OC)cc(O)c3c(=O)c2OC)cc1 | inactive | inactive | inactive | 2 |  |
| COc1cc(O)c2c(=O)c(OC)c(-c3cccc(Cl)c3OC(=O)c3ccccc3)oc2c1OC | inactive | inactive | inactive | 1 |  |
| COc1cc(O)c2c(=O)c(OC)c(-c3cc(Br)cc(Cl)c3O)oc2c1OC | inactive | inactive | inactive |  |  |
| COc1cc(O)c2c(=O)c(OC)c(-c3cccc(Cl)c3OCc3ccc(F)cc3)oc2c1OC | inactive | inactive | inactive |  |  |
| COc1cc(O)c2c(=O)c(OC)c(-c3cccc(Cl)c3OC(=O)/C=C/c3ccccc3)oc2c1OC | inactive | inactive | inactive | 2 |  |
| COc1cc(OC(=O)/C=C/c2ccc(C(F)(F)F)cc2)c2c(=O)c(OC)c(-c3cccc(Cl)c3OC(=O)/C=C/c3ccc(C(F)(F)F)cc3)oc2c1OC | inactive | inactive | inactive |  |  |
| COc1cc(C(=O)Oc2c(Cl)cccc2-c2oc3c(OC)c(OC)cc(O)c3c(=O)c2OC)cc(OC)c1OC | inactive | inactive | inactive | 1.8 |  |
| COc1cc(OC(=O)c2cccs2)c2c(=O)c(OC)c(-c3cccc(Cl)c3OC(=O)c3cccs3)oc2c1OC | inactive | inactive | inactive |  |  |
